Experimental data as given in PMC12723162, “Alphaherpesvirus pUL21 homologs use non-canonical sequences to compete with cellular adaptors for protein phosphatase 1 binding” (The Journal of Biological Chemistry, 2025).
Changes are numbered by the printed parent chain.

B1: H247F (protein)
chain: MELSYATTMHYRDVVFYVTTDRNRAYFVCGGCVYSVGRPCASQPGEIAKFGLVVRGTGPDDRVVANYVRSELRQRGLQDVRPIGEDEVFLDSVCLLNPNVSSELDVINTNDVEVLDECLAEYCTSLRTSPGVLISGLRVRAQDRIIELFEHPTIVNVSSHFVYTPSPYVFALAQAHLPRLPSSLEALVSGLFDGIPAPRQPLDAHNPRTDVVITGRRAPRPIAGSGAGSGGAGAKRATVSEFVQVKFIDRVGPAGVSPAPPPNNTDSSSLVPGAQDSAPPGPTLRELWWVFYAADRALEEPRADSGLTREEVRAVRGFREQAWKLFGSAGAPRAFIGAALGLSPLQKLAVYYYIIHRERRLSPFPALVRLVGRYTQRHGLYVPRPDDPVLADAINGLFRDALAAGTTAEQLLMFDLLPPKDVPVGSDVQADSTALLRFIESQRLAVPGGVISPEHVAYLGAFLSVLYAGRGRMSAATHTARLTGVTSLVLAVGDVDRLSAFDRGAAGAASRTRAAGYLDVLLTVRLARSQHGQSV
modifications: left off: GFP (from the vector pEGFP-N1), end not stated, kept
B2: VV211AA (protein)
chain: B1 chain with V211A, V212A, F247H
modifications: left off: GFP (from the vector pEGFP-N1), end not stated, kept
B3: R250E (protein)
chain: B1 chain with F247H, R250E
modifications: left off: GFP (from the vector pEGFP-N1), end not stated, kept
B4: A232K (protein)
chain: B1 chain with A232K, F247H
modifications: left off: GFP (from the vector pEGFP-N1), end not stated, kept
B5: Q174R (protein)
chain: B1 chain with Q174R, F247H
modifications: left off: GFP (from the vector pEGFP-N1), end not stated, kept
B6: V239F (protein)
chain: B1 chain with V239F, F247H
modifications: left off: GFP (from the vector pEGFP-N1), end not stated, kept
B7: A237V (protein)
chain: B1 chain with A237V, F247H
modifications: left off: GFP (from the vector pEGFP-N1), end not stated, kept
B8: A218E (protein)
chain: B1 chain with A218E, F247H
modifications: left off: GFP (from the vector pEGFP-N1), end not stated, kept

Columns and labels:
PP1 regulatory protein = conditions: cited from earlier work
Text: HEK 293T cells were co-transfected with pUL21-GFP and WT or mutant Myc-PP1, and lysates were subjected to GFP affinity capture before SDS-PAGE and immunoblott ...

pUL21-GFP = test: Co-IP of Myc-PP1 with pUL21-GFP; assay type: binding, HSV-1; conditions: for Co-IP of Myc-PP1 by pUL21-GFP: HEK 293T cells co-transfected, 24 h, immunoblot, versus WT Myc-PP1; for Abundance of Myc-PP1 in cell lysates: HEK 293T lysates used for IP; for Abundance of Myc-PP1 in cell lysates / Bound:input ratio of Myc-PP1 (effect of mutation): versus WT; for Bound:input ratio of Myc-PP1 (effect of mutation): densitometry, HEK 293T, ∗∗∗p < 0.001
Text: (§1) Bacterial expression plasmids encoding the mouse PP1γ catalytic domain (residues 7–300)-H6 and pUL21-H6, and mammalian expression vectors encoding pUL21(FV242AA)-GFP, pORF38-GFP and pORF38(FV255AA)-GFP, were described previously ([23]). We note that the mouse and human PP1γ catalytic domains share 100% amino acid identity. pORF38-NLT-H6 was generated by sub-cloning residues 1 to 263 of ORF38 into the vector pOPTnH ([52]). pUL21-RVxF-H6 was generated by inserting the mutations A237V and V239F into pUL21-H6 by QuikChange site-directed mutagenesis. Human PP1α was cloned from HeLa cell cDNA into a vector derived from pF5K (Promega) with an N-terminal Myc epitope tag via restriction-based cloning, and point mutations were introduced into Myc-PP1α by QuikChange mutagenesis. A plasmid encoding pUL21-GFP was generated by sub-cloning a codon-optimized synthetic UL21 gene (GeneArt) into pEGFP-N1 (Clontech), yielding an identical pUL21-GFP amino acid sequence as used in ([23]). pUL21-ΔL, -ΔR and -ΔLR were generated from this vector via inverse PCR, and point mutations were introduced via QuikChange mutagenesis.
(§2) Mycoplasma-free human embryonic kidney 293T (HEK 293T) cells (American Type Culture Collection #CRL-3216) were maintained in Dulbecco’s modified Eagle’s medium (DMEM) with high glucose (Merck), supplemented with 10% (v/v) heat-inactivated fetal calf serum and 2 mM L-glutamine (complete DMEM) in a humidified 5% CO2 atmosphere at 37 °C. The identity of the cell line was not independently confirmed.
(§3) Monolayers of HEK 293T cells were transfected with 7.7 μg of DNA per 9 cm dish, using 18 μg/ml 25 kDa branched polyethylenimine (Merck) or using TransIt-LT1 (Mirus) in accordance with the manufacturer’s instructions. Cells were harvested 24 h post-transfection and incubated for 30 min in ice-cold 10 mM Tris pH 7.5, 150 mM NaCl, 0.5 mM EDTA, 0.5% Igepal CA-630 (a.k.a. NP-40), 1% (v/v) EDTA-free protease inhibitor cocktail (Merck) before clarification at 21,000×g for 10 min at 4 °C. Lysate protein concentrations were measured using the bicinchoninic acid (BCA) assay (Pierce) and normalized before affinity capture using GFP-Trap resin (ChromoTek) following the manufacturer’s protocol. Samples were eluted by heating the resin to 95 °C for 5 min in 45 μl 2 × SDS-PAGE loading buffer. Proteins were separated by SDS-PAGE and transferred to 0.45 μm nitrocellulose membranes (PerkinElmer or Cytiva). Membranes were stained with Ponceau S and imaged using a G:Box XX9 (Syngene) before blocking in Tris-buffered saline with 0.1% TWEEN-20 (TBS-T) supplemented with 5% (w/v) non-fat milk powder. Immunoblotting was performed using antibodies diluted in blocking buffer as listed below, and immunoblots were imaged using an Odyssey CLx (LI-COR Biosciences). Densitometry was performed using Image Studio Lite version 5.2 (LI-COR Biosciences), and statistical tests were performed using Prism version 7 (GraphPad).
(§4) The following primary antibodies and dilutions were used for immunoblotting: rabbit anti-CERT 1:10,000 (Abcam #Ab72536), mouse anti-PP1α 1:1000 (Santa Cruz #sc-271762), mouse anti-Myc 1:4000 (Millipore #05–724), rat anti-tubulin (clone YL1/2) hybridoma supernatant 1:40 ([54]). The anti-CERT antibody was validated using a knock-out cell line. The anti-PP1α antibody has been validated by siRNA knockdown ([55]). The anti-Myc antibody was validated using control experiments lacking Myc-tagged transfected constructs ([56]). The anti-tubulin antibody has been validated by immunofluorescence microscopy, immuno-electron microscopy and radiolabeled immunosorbent assay ([54]). Secondary antibodies from LI-COR Biosciences were diluted 1:10,000 as follows: IRDye 680RD goat anti-rat (#926–68029) and goat anti-mouse (#926–68020), or IRDye 800CW goat anti-rabbit (#926–32221).

endogenous PP1α = test: GFP affinity capture / co-IP of endogenous PP1α with GFP-tagged bait; assay type: binding, human; conditions: HEK 293T cells, 24 h post-transfection, GFP-Trap, immunoblot; representative of two independent experiments
Text: as §1, §2, §3, §4

Molecule	Co-IP of endogenous PP1α (endogenous PP1α)	also measured
L289R	–	PP1 regulatory protein binding (PP1 regulatory protein): severely decrease PP1 regulatory protein binding; Co-IP of Myc-PP1 by pUL21-GFP (pUL21-GFP): profoundly less efficient than for WT Myc-PP1; Abundance of Myc-PP1 in cell lysates (pUL21-GFP): lower abundance of these mutants in the cell lysates; Bound:input ratio of Myc-PP1 (effect of mutation) (pUL21-GFP): significantly disrupt binding to pUL21-GFP
C291R	–	PP1 regulatory protein binding (PP1 regulatory protein): severely decrease PP1 regulatory protein binding; Co-IP of Myc-PP1 by pUL21-GFP (pUL21-GFP): profoundly less efficient than for WT Myc-PP1; Abundance of Myc-PP1 in cell lysates (pUL21-GFP): lower abundance of these mutants in the cell lysates; Bound:input ratio of Myc-PP1 (effect of mutation) (pUL21-GFP): significantly disrupt binding to pUL21-GFP
B1	co-precipitated more PP1α than did WT pUL21-GFP	–
B2	PP1α coIP was abolished	–
B3	dramatically reduced binding	–
B4	did not dramatically alter PP1α coIP	–
B5	PP1α coIP was abolished	–
B6	co-precipitated more PP1α than did WT pUL21-GFP	–
B7	co-precipitated more PP1α than did WT pUL21-GFP	–
B8	PP1α coIP was abolished	–
